Laboratory results from ChEMBL document CHEMBL5465560, “Selectivity Literature for EUbOPEN Chemogenomic Library” (2024).

What was measured:
[1] = biological target: T1, cAMP-dependent protein kinase catalytic subunit PRKX (Homo sapiens) (UniProt P51817); test: Selectivity interaction (Kinase screening (Nanosyn)) EUB0000604a PRKX
T1 sequence (whole entry): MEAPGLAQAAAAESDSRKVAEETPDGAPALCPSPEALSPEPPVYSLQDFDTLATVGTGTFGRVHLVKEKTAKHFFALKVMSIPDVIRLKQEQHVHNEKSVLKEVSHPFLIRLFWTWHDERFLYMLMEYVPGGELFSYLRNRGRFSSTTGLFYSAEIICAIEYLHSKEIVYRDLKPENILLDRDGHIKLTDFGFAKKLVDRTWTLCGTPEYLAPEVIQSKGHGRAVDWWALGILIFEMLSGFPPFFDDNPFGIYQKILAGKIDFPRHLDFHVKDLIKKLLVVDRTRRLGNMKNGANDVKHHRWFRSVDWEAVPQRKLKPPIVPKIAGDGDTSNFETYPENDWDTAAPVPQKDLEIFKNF

[2] = biological target: T2, Ephrin type-B receptor 3 (Homo sapiens) (UniProt P54753); test: Selectivity interaction (Ambit KINOMEscan and KiNATiv profiling in Jurkat cells) EUB0000090b EPHB3; assay type: cell-based; conditions: at 1 µM
T2 sequence (whole entry): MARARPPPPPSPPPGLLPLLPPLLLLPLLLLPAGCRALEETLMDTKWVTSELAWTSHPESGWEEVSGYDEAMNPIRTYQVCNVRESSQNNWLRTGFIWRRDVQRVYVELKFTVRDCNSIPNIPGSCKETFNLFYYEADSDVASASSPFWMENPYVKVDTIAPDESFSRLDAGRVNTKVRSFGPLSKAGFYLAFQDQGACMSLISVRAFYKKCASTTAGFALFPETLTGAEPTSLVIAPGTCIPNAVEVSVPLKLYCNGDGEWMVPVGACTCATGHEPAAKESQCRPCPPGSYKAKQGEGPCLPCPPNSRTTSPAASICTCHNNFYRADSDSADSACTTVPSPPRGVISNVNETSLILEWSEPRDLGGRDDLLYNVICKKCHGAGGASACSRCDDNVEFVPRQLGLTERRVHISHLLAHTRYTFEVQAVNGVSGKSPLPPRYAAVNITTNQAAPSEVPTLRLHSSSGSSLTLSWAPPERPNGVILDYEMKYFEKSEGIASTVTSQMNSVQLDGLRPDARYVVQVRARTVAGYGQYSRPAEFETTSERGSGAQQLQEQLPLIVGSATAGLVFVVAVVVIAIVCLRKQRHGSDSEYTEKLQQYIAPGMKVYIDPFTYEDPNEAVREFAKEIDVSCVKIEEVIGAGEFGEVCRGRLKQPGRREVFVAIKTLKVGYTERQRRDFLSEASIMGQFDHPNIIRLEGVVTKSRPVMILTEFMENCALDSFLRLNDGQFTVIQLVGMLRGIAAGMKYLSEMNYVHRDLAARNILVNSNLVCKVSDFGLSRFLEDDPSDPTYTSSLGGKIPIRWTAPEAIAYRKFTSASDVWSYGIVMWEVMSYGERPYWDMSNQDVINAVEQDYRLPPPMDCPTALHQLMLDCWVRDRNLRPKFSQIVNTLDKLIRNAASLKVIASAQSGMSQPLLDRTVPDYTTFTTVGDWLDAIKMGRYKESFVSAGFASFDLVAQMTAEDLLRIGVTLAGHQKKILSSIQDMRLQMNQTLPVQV

[3] = biological target: Serine/threonine-protein kinase PAK 4 (Homo sapiens, UniProt O96013); test: Selectivity interaction (Kinase panel (literature)) EUB0001199aCl PAK4; conditions: at 1 µM
[4] = biological target: T3, Serine/threonine-protein kinase LATS2 (Homo sapiens) (UniProt Q9NRM7); test: Selectivity interaction (KinomeScan (DiscoverX)) EUB0001079a LATS2; conditions: at 1 µM
T3 sequence (whole entry): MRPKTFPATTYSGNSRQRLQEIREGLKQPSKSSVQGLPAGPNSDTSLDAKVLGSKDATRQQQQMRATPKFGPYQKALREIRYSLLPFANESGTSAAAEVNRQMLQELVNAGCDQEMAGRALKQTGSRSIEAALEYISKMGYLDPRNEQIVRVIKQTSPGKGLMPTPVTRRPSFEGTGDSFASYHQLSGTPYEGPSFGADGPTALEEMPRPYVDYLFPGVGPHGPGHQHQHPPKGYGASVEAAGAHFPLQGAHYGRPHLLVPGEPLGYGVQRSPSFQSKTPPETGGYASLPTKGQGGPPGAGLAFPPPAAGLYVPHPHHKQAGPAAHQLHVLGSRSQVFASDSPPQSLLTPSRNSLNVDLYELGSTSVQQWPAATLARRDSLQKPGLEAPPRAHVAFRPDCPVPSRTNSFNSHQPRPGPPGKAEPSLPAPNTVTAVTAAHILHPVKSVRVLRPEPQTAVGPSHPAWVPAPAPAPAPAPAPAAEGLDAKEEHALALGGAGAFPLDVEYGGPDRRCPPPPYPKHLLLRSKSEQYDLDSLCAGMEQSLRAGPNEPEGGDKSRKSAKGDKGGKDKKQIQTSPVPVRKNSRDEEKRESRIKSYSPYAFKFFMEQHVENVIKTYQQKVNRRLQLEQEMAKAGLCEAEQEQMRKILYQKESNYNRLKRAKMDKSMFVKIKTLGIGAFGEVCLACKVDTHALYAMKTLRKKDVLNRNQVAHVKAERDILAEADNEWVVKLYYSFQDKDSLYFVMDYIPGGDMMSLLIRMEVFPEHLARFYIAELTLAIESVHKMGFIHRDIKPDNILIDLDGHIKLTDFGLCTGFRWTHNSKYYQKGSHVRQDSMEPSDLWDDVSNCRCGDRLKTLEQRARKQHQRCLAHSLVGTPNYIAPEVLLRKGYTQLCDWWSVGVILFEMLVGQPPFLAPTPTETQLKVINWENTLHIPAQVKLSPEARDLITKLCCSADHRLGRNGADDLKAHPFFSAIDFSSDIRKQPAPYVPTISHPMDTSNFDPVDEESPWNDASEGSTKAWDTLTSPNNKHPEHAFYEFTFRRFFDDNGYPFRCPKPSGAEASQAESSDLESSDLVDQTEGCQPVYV

[5] = biological target: Dual specificity mitogen-activated protein kinase kinase 1 (Homo sapiens, UniProt Q02750); test: Selectivity interaction (KinomeScan (DiscoverX)) EUB0000092b MAP2K1; conditions: at 10 µM
Dual specificity mitogen-activated protein kinase kinase 1, sequence (Q02750 whole entry): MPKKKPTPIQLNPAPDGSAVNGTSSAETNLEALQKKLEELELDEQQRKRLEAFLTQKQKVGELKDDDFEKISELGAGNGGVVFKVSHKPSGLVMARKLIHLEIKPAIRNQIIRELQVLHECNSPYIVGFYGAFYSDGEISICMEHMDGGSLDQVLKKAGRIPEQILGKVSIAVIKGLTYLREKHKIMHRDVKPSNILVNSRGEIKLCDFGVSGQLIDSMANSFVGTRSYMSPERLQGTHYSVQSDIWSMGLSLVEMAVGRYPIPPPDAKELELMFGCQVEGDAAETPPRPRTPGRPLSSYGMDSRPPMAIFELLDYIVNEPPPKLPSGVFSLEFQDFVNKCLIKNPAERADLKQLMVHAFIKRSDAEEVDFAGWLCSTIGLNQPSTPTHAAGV

Serine/threonine-protein kinase PAK 4, sequence (O96013 whole entry, looked up): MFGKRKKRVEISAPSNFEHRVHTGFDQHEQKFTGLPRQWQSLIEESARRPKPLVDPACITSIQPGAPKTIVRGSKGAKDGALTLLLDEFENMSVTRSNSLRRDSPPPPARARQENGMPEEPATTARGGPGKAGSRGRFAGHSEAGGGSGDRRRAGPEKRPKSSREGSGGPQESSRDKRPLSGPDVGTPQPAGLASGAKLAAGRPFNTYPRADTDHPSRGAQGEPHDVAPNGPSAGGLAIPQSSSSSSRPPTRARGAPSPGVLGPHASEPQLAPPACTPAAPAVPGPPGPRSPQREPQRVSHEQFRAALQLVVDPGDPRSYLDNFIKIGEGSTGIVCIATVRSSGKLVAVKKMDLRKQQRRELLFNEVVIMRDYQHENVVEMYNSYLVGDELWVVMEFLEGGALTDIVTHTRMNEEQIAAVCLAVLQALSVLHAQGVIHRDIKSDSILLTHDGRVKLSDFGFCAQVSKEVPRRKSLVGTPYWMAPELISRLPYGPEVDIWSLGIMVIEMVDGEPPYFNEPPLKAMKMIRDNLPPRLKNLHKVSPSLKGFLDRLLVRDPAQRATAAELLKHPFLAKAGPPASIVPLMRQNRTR

For Cc1cnc(Nc2ccc(F)cc2Cl)nc1-c1c[nH]c(C(=O)N[C@H](CO)c2cccc(Cl)c2)c1, the % of inhibition [1] was 3%.
CN(C)C/C=C/C(=O)Nc1ccc(C(=O)N2CCCC(Nc3ncc(Cl)c(-c4c[nH]c5ccccc45)n3)C2)cc1 (stereo not given) was tested, and the % of control [2] was 93%.
CN1Cc2nccc(-c3cn(C)nc3-c3ccc(F)cc3)c2C1=O gave a % of inhibition [3] of 7%.
Compound Nc1cnc(N2CCc3cc(S(=O)(=O)Nc4c(F)cc(Cl)cc4F)cc(N4CCCC4=O)c32)nc1 [TP-020n] has a % of control [4] of 100%.
Compound CCC(=O)N1CCN(c2ccc(-n3c(=O)ccc4cnc5ccc(-c6cnc7ccccc7c6)cc5c43)cc2C(F)(F)F)CC1 has a % of control [5] of 100%.
